# From PubChem BioAssay (NCI)
#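 Five concentrations, 48 hours, 96-well plates. At the GI50, growth is halved. TGI is the concentration that stops growth completely.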
# Key:
# Assay in all cases: NCI anticancer screen, dose series, 48 h
# TK-10 renal = system: TK-10 renal
# 786-0 renal = system: 786-0 renal
# MDA-MB-231 breast = system: MDA-MB-231 breast
# SF-295 CNS = system: SF-295 CNS
# UO-31 renal = system: UO-31 renal
# KM12 colon = system: KM12 colon
# T-47D breast = system: T-47D breast
# U251 CNS = system: U251 CNS
# IGROV1 ovarian = system: IGROV1 ovarian
# BT-549 breast = system: BT-549 breast
# CCRF-CEM leukemia = system: CCRF-CEM leukemia
# HL-60(TB) leukemia = system: HL-60(TB) leukemia
# SF-539 CNS = system: SF-539 CNS
# UACC-62 melanoma = system: UACC-62 melanoma
# M14 melanoma = system: M14 melanoma
# ACHN renal = system: ACHN renal
# A498 renal = system: A498 renal
# PC-3 prostate = system: PC-3 prostate
# HCT-15 colon = system: HCT-15 colon
# RXF 393 renal = system: RXF 393 renal
# NCI-H460 lung = system: NCI-H460 lung
# RPMI-8226 leukemia = system: RPMI-8226 leukemia
# DU-145 prostate = system: DU-145 prostate
# SN12C renal = system: SN12C renal
# OVCAR-4 ovarian = system: OVCAR-4 ovarian
# SK-MEL-2 melanoma = system: SK-MEL-2 melanoma
# SK-OV-3 ovarian = system: SK-OV-3 ovarian
# SK-MEL-28 melanoma = system: SK-MEL-28 melanoma
# SNB-19 CNS = system: SNB-19 CNS
# NCI-H522 lung = system: NCI-H522 lung
# SF-268 CNS = system: SF-268 CNS
# NCI-H23 lung = system: NCI-H23 lung
# CAKI-1 renal = system: CAKI-1 renal
# MALME-3M melanoma = system: MALME-3M melanoma
# MDA-MB-435 = system: MDA-MB-435
# OVCAR-3 ovarian = system: OVCAR-3 ovarian
# K-562 leukemia = system: K-562 leukemia
# HOP-62 NSCLC = system: HOP-62 NSCLC
# OVCAR-5 ovarian = system: OVCAR-5 ovarian
# SK-MEL-5 melanoma = system: SK-MEL-5 melanoma
# HCT-116 colon = system: HCT-116 colon
# OVCAR-8 ovarian = system: OVCAR-8 ovarian
# UACC-257 melanoma = system: UACC-257 melanoma
# HT29 colon = system: HT29 colon
# HS 578T breast = system: HS 578T breast
# EKVX NSCLC = system: EKVX NSCLC
# COLO 205 colon = system: COLO 205 colon
# SW-620 colon = system: SW-620 colon
# SR leukemia = system: SR leukemia
# NCI-H226 lung = system: NCI-H226 lung
# A549 NSCLC = system: A549 NSCLC
# HOP-92 NSCLC = system: HOP-92 NSCLC
# MOLT-4 leukemia = system: MOLT-4 leukemia
# MCF7 breast = system: MCF7 breast
# NCI/ADR-RES ovarian = system: NCI/ADR-RES ovarian
# HCC-2998 colon = system: HCC-2998 colon
# LOX IMVI melanoma = system: LOX IMVI melanoma
structure (smiles),measurement,setting,value
Cc1ccn2c3c(c(C(=O)O)c2c1)C(=O)c1ccccc1C3=O,GI50,TK-10 renal,> 100 µM
same,TGI,TK-10 renal,> 100 µM
same,GI50,786-0 renal,> 87.4 µM
same,TGI,786-0 renal,> 100 µM
same,GI50,MDA-MB-231 breast,11.8 µM
same,TGI,MDA-MB-231 breast,> 100 µM
same,GI50,SF-295 CNS,2.25 µM
same,TGI,SF-295 CNS,8.68 µM
same,GI50,UO-31 renal,25.8 µM
same,TGI,UO-31 renal,> 100 µM
same,GI50,KM12 colon,9.31 µM
same,TGI,KM12 colon,> 100 µM
same,GI50,T-47D breast,> 100 µM
same,TGI,T-47D breast,> 100 µM
same,GI50,U251 CNS,15.7 µM
same,TGI,U251 CNS,> 100 µM
same,GI50,IGROV1 ovarian,> 42.1 µM
same,TGI,IGROV1 ovarian,> 100 µM
same,GI50,BT-549 breast,3.9 µM
same,TGI,BT-549 breast,53.6 µM
same,GI50,CCRF-CEM leukemia,> 100 µM
same,TGI,CCRF-CEM leukemia,> 100 µM
same,GI50,HL-60(TB) leukemia,> 100 µM
same,TGI,HL-60(TB) leukemia,> 100 µM
same,GI50,SF-539 CNS,4.46 µM
same,TGI,SF-539 CNS,64.7 µM
same,GI50,UACC-62 melanoma,2.44 µM
same,TGI,UACC-62 melanoma,9.13 µM
same,GI50,M14 melanoma,1.11 µM
same,TGI,M14 melanoma,2.64 µM
same,GI50,ACHN renal,> 96.4 µM
same,TGI,ACHN renal,> 100 µM
same,GI50,A498 renal,5.01 µM
same,TGI,A498 renal,40.5 µM
same,GI50,PC-3 prostate,> 100 µM
same,TGI,PC-3 prostate,> 100 µM
same,GI50,HCT-15 colon,5.14 µM
same,TGI,HCT-15 colon,> 100 µM
same,GI50,RXF 393 renal,10.4 µM
same,TGI,RXF 393 renal,> 100 µM
same,GI50,NCI-H460 lung,1.36 µM
same,TGI,NCI-H460 lung,3.07 µM
same,GI50,RPMI-8226 leukemia,> 100 µM
same,TGI,RPMI-8226 leukemia,> 100 µM
same,GI50,DU-145 prostate,1.68 µM
same,TGI,DU-145 prostate,3.18 µM
same,GI50,SN12C renal,7.97 µM
same,TGI,SN12C renal,> 100 µM
same,GI50,OVCAR-4 ovarian,12.6 µM
same,TGI,OVCAR-4 ovarian,> 100 µM
same,GI50,SK-MEL-2 melanoma,> 100 µM
same,TGI,SK-MEL-2 melanoma,> 100 µM
same,GI50,SK-OV-3 ovarian,> 100 µM
same,TGI,SK-OV-3 ovarian,> 100 µM
same,GI50,SK-MEL-28 melanoma,4.44 µM
same,TGI,SK-MEL-28 melanoma,> 100 µM
same,GI50,SNB-19 CNS,4.24 µM
same,TGI,SNB-19 CNS,> 100 µM
same,GI50,NCI-H522 lung,> 45.7 µM
same,TGI,NCI-H522 lung,> 100 µM
same,GI50,SF-268 CNS,> 100 µM
same,TGI,SF-268 CNS,> 100 µM
same,GI50,NCI-H23 lung,1.74 µM
same,TGI,NCI-H23 lung,5.88 µM
same,GI50,CAKI-1 renal,> 100 µM
same,TGI,CAKI-1 renal,> 100 µM
same,GI50,MALME-3M melanoma,0.48 µM
same,TGI,MALME-3M melanoma,1.92 µM
same,GI50,MDA-MB-435,1.57 µM
same,TGI,MDA-MB-435,3.05 µM
same,GI50,OVCAR-3 ovarian,2.9 µM
same,TGI,OVCAR-3 ovarian,> 70.3 µM
same,GI50,K-562 leukemia,> 100 µM
same,TGI,K-562 leukemia,> 100 µM
same,GI50,HOP-62 NSCLC,5.93 µM
same,TGI,HOP-62 NSCLC,> 100 µM
same,GI50,OVCAR-5 ovarian,30.5 µM
same,TGI,OVCAR-5 ovarian,> 100 µM
same,GI50,SK-MEL-5 melanoma,0.679 µM
same,TGI,SK-MEL-5 melanoma,1.97 µM
same,GI50,HCT-116 colon,> 48.3 µM
same,TGI,HCT-116 colon,> 100 µM
same,GI50,OVCAR-8 ovarian,> 100 µM
same,TGI,OVCAR-8 ovarian,> 100 µM
same,GI50,UACC-257 melanoma,4.41 µM
same,TGI,UACC-257 melanoma,> 60.3 µM
same,GI50,HT29 colon,4.61 µM
same,TGI,HT29 colon,> 100 µM
same,GI50,HS 578T breast,3.71 µM
same,TGI,HS 578T breast,29.8 µM
same,GI50,EKVX NSCLC,48 µM
same,TGI,EKVX NSCLC,> 100 µM
same,GI50,COLO 205 colon,2.62 µM
same,TGI,COLO 205 colon,8.75 µM
same,GI50,SW-620 colon,15.1 µM
same,TGI,SW-620 colon,> 100 µM
same,GI50,SR leukemia,> 30.5 µM
same,TGI,SR leukemia,> 100 µM
same,GI50,NCI-H226 lung,2.46 µM
same,TGI,NCI-H226 lung,17.4 µM
same,GI50,A549 NSCLC,1.77 µM
same,TGI,A549 NSCLC,4.4 µM
same,GI50,HOP-92 NSCLC,> 100 µM
same,TGI,HOP-92 NSCLC,> 100 µM
same,GI50,MOLT-4 leukemia,> 100 µM
same,TGI,MOLT-4 leukemia,> 100 µM
same,GI50,MCF7 breast,6.52 µM
same,TGI,MCF7 breast,97.2 µM
same,GI50,NCI/ADR-RES ovarian,49.8 µM
same,TGI,NCI/ADR-RES ovarian,> 100 µM
same,GI50,HCC-2998 colon,4.58 µM
same,TGI,HCC-2998 colon,> 100 µM
same,GI50,LOX IMVI melanoma,4.36 µM
same,TGI,LOX IMVI melanoma,> 100 µM
